From PubChem BioAssay (NCI)
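Interpolation was linear, between the two tested concentrations surrounding the appropriate level; five concentrations were tested over 48 hours in 96-well plates. TGI denotes the concentration required for complete inhibition of growth.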

Experiments:
Assay in all cases: DTP human tumour cell line panel, 48 h
SK-OV-3 ovarian = tested on: SK-OV-3 ovarian
M14 melanoma = tested on: M14 melanoma
KM12 colon = tested on: KM12 colon
SN12C renal = tested on: SN12C renal
UO-31 renal = tested on: UO-31 renal
SK-MEL-2 melanoma = tested on: SK-MEL-2 melanoma
LOX IMVI melanoma = tested on: LOX IMVI melanoma
TK-10 renal = tested on: TK-10 renal
HOP-18 NSCLC = tested on: HOP-18 NSCLC
CCRF-CEM leukemia = tested on: CCRF-CEM leukemia
HOP-62 NSCLC = tested on: HOP-62 NSCLC
XF 498 CNS = tested on: XF 498 CNS
SR leukemia = tested on: SR leukemia
M19-MEL melanoma = tested on: M19-MEL melanoma
DMS 273 small cell lung = tested on: DMS 273 small cell lung
OVCAR-5 ovarian = tested on: OVCAR-5 ovarian
MALME-3M melanoma = tested on: MALME-3M melanoma
RXF-631 renal = tested on: RXF-631 renal
OVCAR-3 ovarian = tested on: OVCAR-3 ovarian
RXF 393 renal = tested on: RXF 393 renal
HCC-2998 colon = tested on: HCC-2998 colon
SNB-75 CNS = tested on: SNB-75 CNS
HCT-15 colon = tested on: HCT-15 colon
A549 NSCLC = tested on: A549 NSCLC
IGROV1 ovarian = tested on: IGROV1 ovarian
SW-620 colon = tested on: SW-620 colon
OVCAR-4 ovarian = tested on: OVCAR-4 ovarian
K-562 leukemia = tested on: K-562 leukemia
UACC-257 melanoma = tested on: UACC-257 melanoma
NCI-H23 lung = tested on: NCI-H23 lung
DMS 114 small cell lung = tested on: DMS 114 small cell lung
SK-MEL-5 melanoma = tested on: SK-MEL-5 melanoma
MOLT-4 leukemia = tested on: MOLT-4 leukemia
EKVX NSCLC = tested on: EKVX NSCLC
OVCAR-8 ovarian = tested on: OVCAR-8 ovarian
SK-MEL-28 melanoma = tested on: SK-MEL-28 melanoma
SF-295 CNS = tested on: SF-295 CNS
SNB-78 CNS = tested on: SNB-78 CNS
SF-539 CNS = tested on: SF-539 CNS
SF-268 CNS = tested on: SF-268 CNS
HOP-92 NSCLC = tested on: HOP-92 NSCLC
DLD-1 colon = tested on: DLD-1 colon
NCI-H226 lung = tested on: NCI-H226 lung
HCT-116 colon = tested on: HCT-116 colon
A498 renal = tested on: A498 renal
KM20L2 colon = tested on: KM20L2 colon
HL-60(TB) leukemia = tested on: HL-60(TB) leukemia
UACC-62 melanoma = tested on: UACC-62 melanoma
COLO 205 colon = tested on: COLO 205 colon
HT29 colon = tested on: HT29 colon
NCI-H460 lung = tested on: NCI-H460 lung
U251 CNS = tested on: U251 CNS
LXFL 529 NSCLC = tested on: LXFL 529 NSCLC
RPMI-8226 leukemia = tested on: RPMI-8226 leukemia
ACHN renal = tested on: ACHN renal
SNB-19 CNS = tested on: SNB-19 CNS
786-0 renal = tested on: 786-0 renal

O=S(=O)(N/N=C/c1c(Cl)cccc1Cl)c1ccccc1
TGI (SK-OV-3 ovarian): > 100 µM | TGI (M14 melanoma): > 100 µM | TGI (KM12 colon): > 100 µM | TGI (SN12C renal): > 100 µM | TGI (UO-31 renal): > 100 µM | TGI (SK-MEL-2 melanoma): > 100 µM | TGI (LOX IMVI melanoma): > 100 µM | TGI (TK-10 renal): > 100 µM | TGI (HOP-18 NSCLC): > 100 µM | TGI (CCRF-CEM leukemia): > 100 µM | TGI (HOP-62 NSCLC): > 100 µM | TGI (XF 498 CNS): > 100 µM | TGI (SR leukemia): > 100 µM | TGI (M19-MEL melanoma): > 100 µM | TGI (DMS 273 small cell lung): > 100 µM | TGI (OVCAR-5 ovarian): > 100 µM | TGI (MALME-3M melanoma): > 100 µM | TGI (RXF-631 renal): > 100 µM | TGI (OVCAR-3 ovarian): > 100 µM | TGI (RXF 393 renal): > 100 µM | TGI (HCC-2998 colon): > 100 µM | TGI (SNB-75 CNS): > 100 µM | TGI (HCT-15 colon): > 100 µM | TGI (A549 NSCLC): > 100 µM | TGI (IGROV1 ovarian): > 100 µM | TGI (SW-620 colon): > 100 µM | TGI (OVCAR-4 ovarian): > 100 µM | TGI (K-562 leukemia): > 100 µM | TGI (UACC-257 melanoma): > 100 µM | TGI (NCI-H23 lung): > 100 µM | TGI (DMS 114 small cell lung): > 100 µM | TGI (SK-MEL-5 melanoma): > 100 µM | TGI (MOLT-4 leukemia): > 100 µM | TGI (EKVX NSCLC): > 100 µM | TGI (OVCAR-8 ovarian): > 100 µM | TGI (SK-MEL-28 melanoma): > 100 µM | TGI (SF-295 CNS): > 100 µM | TGI (SNB-78 CNS): > 100 µM | TGI (SF-539 CNS): > 100 µM | TGI (SF-268 CNS): > 100 µM | TGI (HOP-92 NSCLC): > 100 µM | TGI (DLD-1 colon): > 100 µM | TGI (NCI-H226 lung): > 100 µM | TGI (HCT-116 colon): > 100 µM | TGI (A498 renal): > 100 µM | TGI (KM20L2 colon): > 100 µM | TGI (HL-60(TB) leukemia): 70.8 µM | TGI (UACC-62 melanoma): > 100 µM | TGI (COLO 205 colon): > 100 µM | TGI (HT29 colon): > 100 µM | TGI (NCI-H460 lung): > 100 µM | TGI (U251 CNS): > 100 µM | TGI (LXFL 529 NSCLC): > 100 µM | TGI (RPMI-8226 leukemia): > 100 µM

COc1ccc(O)cc1C=O
TGI (SK-OV-3 ovarian): > 100 µM | TGI (M14 melanoma): > 100 µM | TGI (KM12 colon): > 100 µM | TGI (SN12C renal): > 100 µM | TGI (UO-31 renal): > 100 µM | TGI (LOX IMVI melanoma): > 100 µM | TGI (TK-10 renal): > 100 µM | TGI (HOP-18 NSCLC): > 100 µM | TGI (CCRF-CEM leukemia): > 100 µM | TGI (HOP-62 NSCLC): > 100 µM | TGI (XF 498 CNS): > 100 µM | TGI (SR leukemia): 92.3 µM | TGI (M19-MEL melanoma): > 100 µM | TGI (DMS 273 small cell lung): > 100 µM | TGI (OVCAR-5 ovarian): > 100 µM | TGI (MALME-3M melanoma): > 100 µM | TGI (RXF-631 renal): > 100 µM | TGI (OVCAR-3 ovarian): > 100 µM | TGI (RXF 393 renal): > 100 µM | TGI (HCC-2998 colon): > 100 µM | TGI (HCT-15 colon): > 100 µM | TGI (A549 NSCLC): > 100 µM | TGI (IGROV1 ovarian): > 100 µM | TGI (SW-620 colon): > 100 µM | TGI (ACHN renal): > 100 µM | TGI (SNB-19 CNS): > 100 µM | TGI (OVCAR-4 ovarian): > 100 µM | TGI (K-562 leukemia): > 100 µM | TGI (UACC-257 melanoma): > 100 µM | TGI (NCI-H23 lung): > 100 µM | TGI (DMS 114 small cell lung): > 100 µM | TGI (SK-MEL-5 melanoma): > 100 µM | TGI (MOLT-4 leukemia): > 100 µM | TGI (EKVX NSCLC): > 100 µM | TGI (OVCAR-8 ovarian): > 100 µM | TGI (SK-MEL-28 melanoma): > 100 µM | TGI (SF-295 CNS): > 100 µM | TGI (SNB-78 CNS): > 100 µM | TGI (786-0 renal): > 100 µM | TGI (SF-539 CNS): > 100 µM | TGI (SF-268 CNS): > 100 µM | TGI (HOP-92 NSCLC): > 100 µM | TGI (DLD-1 colon): > 100 µM | TGI (HCT-116 colon): > 100 µM | TGI (A498 renal): > 100 µM | TGI (KM20L2 colon): > 100 µM | TGI (HL-60(TB) leukemia): 54.9 µM | TGI (UACC-62 melanoma): > 100 µM | TGI (COLO 205 colon): > 100 µM | TGI (HT29 colon): > 100 µM | TGI (NCI-H460 lung): > 100 µM | TGI (U251 CNS): > 100 µM | TGI (LXFL 529 NSCLC): > 100 µM | TGI (RPMI-8226 leukemia): > 100 µM
